Laboratory results from paper PMC7993727, “Discovery of a novel AR/HDAC6 dual inhibitor for prostate cancer treatment” (Aging (Albany NY), 2021).
Values joined by “and” are separate entries in the source; they are usually repeats but may differ in a detail not shown here. Equal entries are not always repeated.

Columns and labels:
[1] = system: HEK293 cells; test: cell proliferation assay; format: cell-based; conditions: Homo sapiens, HEK293, 72 h, read-out: IC50 values proliferation HEK293
[2] = system: LNCaP cells; test: cell proliferation assay; format: cell-based; conditions: Homo sapiens, 72 h, read-out: IC50 values proliferation LNCaP
Protocol: (§1) After 7 days, cell viability was measured using a CellTiter 96® AQueous One Solution Cell Proliferation Assay kit (Promega).

[3] = system: VCaP cells; test: cell proliferation assay; format: cell-based
Protocol: as §1

[4] = system: PSA; test: PSA mRNA (qRT-PCR) and protein (Western blot) expression in VCaP cells; format: cell-based; conditions: 10 nM DHT, 24 hours
Protocol: RNA expression level was analyzed by qRT-PCR and protein expression level was analyzed by Western blot. […] (I) Representative immunofluorescence microscopic images of VCaP cells for checking the subcellular localization of AR.
The RNA of VCaP cells was extracted using a Simply P Total RNA Extraction kit (Bioer technology) and cDNA was synthesized using a SMARTer PCR cDNA Synthesis Kit (Clontech). PSA and β-actin primers were synthesized by Sangon Biotech according to previous literature. Real-time PCR was performed using the PowerUp SYBR™ Green kit (ThermoFisher). The PCR program was run on a LightCycler 480II (Roche) and set as follows: 2 minutes at 95° C followed by 40 cycles of 30 seconds at 95° C, 15 seconds at 60° C and 30 seconds at 72° C. Data were quantified using the 2-ΔΔCt method based on the Ct values of PSA and β-actin from two parallel experiments performed in triplicate.
The whole-cell extracts were prepared in lysis buffer with a protease inhibitor cocktail (Bimake), while the xenograft tissue extracts were prepared in 0.5% Nonidet P 40 Substitute solution (Biosharp) with cocktail protease inhibitor (Bimake). Each sample containing 30 μg of total protein was loaded onto 10% SDS-PAGE and electrotransferred onto polyvinylidene fluoride membranes. […]

[5] = system: HSP90, HSP60, HSP70; test: expression levels of heat shock proteins; format: cell-based
[6] = target: T1, AR (Homo sapiens, UniProt P10275); format: cell-based; conditions: VCaP cells, 10% FBS, 10 μM, 24 hours
T1 construct: The VCaP cells were transfected with MMTV-LUC for 24 hours; endogenous in cells; host or cells: VCaP
T1 sequence (P10275 1-920): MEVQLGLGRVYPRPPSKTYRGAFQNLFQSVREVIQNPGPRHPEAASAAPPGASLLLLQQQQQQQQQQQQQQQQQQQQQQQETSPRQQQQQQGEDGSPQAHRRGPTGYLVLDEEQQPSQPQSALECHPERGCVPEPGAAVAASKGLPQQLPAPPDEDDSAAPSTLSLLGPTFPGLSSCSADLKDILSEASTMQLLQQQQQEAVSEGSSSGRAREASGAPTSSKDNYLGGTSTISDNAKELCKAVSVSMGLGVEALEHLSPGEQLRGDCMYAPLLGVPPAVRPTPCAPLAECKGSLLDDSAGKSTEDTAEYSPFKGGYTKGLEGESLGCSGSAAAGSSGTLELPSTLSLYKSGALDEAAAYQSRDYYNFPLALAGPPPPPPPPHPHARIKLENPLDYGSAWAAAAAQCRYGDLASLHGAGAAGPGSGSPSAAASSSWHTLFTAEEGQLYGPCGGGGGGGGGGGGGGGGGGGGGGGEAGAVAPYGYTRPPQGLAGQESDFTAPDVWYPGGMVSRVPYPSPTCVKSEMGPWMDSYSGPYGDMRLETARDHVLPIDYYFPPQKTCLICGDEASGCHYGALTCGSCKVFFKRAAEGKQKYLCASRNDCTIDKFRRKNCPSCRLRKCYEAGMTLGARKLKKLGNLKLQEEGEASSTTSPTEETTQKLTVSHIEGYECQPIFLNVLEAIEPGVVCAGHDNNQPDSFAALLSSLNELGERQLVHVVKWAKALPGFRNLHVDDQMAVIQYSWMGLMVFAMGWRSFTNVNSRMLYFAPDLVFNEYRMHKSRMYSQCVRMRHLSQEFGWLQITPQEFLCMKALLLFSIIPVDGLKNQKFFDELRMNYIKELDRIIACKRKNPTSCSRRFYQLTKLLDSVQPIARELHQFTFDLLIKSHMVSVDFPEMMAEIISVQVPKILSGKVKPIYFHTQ
Protocol: Cells were fixed with 4% paraformaldehyde for 15 minutes at room temperature, permeabilized with immunostaining permeate for 10 minutes and blocked with 5% BSA containing 1% Tween-20 for 1 hour. After overnight Immunostain with AR Rabbit monoclonal antibody (1:400;CST,5153S) at 4° C, a Cy3 conjugated Goat Anti-Rabbit IgG (1:300; Servicebio, GB21303) reacted for 1 hour. DAPI (4’,6-diamidine-2’-phenylindole, Servicebio, G1012) stained the nuclear to bule for 10 minutes in the dark. Washing three times with PBS between each step. Immunofluorescence images were acquired by fluorescence microscopy using a NIKON ECLIPSE CI microscope (Nikon Corporation; magnification).

[7] = system: DU145 cells; test: cell proliferation assay; format: cell-based; conditions: Homo sapiens, DU-145, 72 h, read-out: IC50 values proliferation DU145
[8] = target: T1, AR; test: cell-based; format: cell-based; conditions: VCaP cells
Protocol: To evaluate the AR inhibition activities of Zeta55, an AR luciferase activity assay was performed (Table 1 and Supplementary Figure 1). […] To evaluate the HDAC inhibition activities of Zeta55, fluorescent-based HDAC assays were performed (Table 1 and Supplementary Figure 3).

[9] = pharmacokinetics of Zeta55 in rats; format: in vivo; conditions: for AUC(0-t): 0-72h
Protocol: To evaluate the pharmacokinetic properties of Zeta55 in vivo, rats were orally (20 mg/kg) or intravenously (5 mg/kg) administrated with Zeta55, and the plasma concentration of Zeta55 was measured using LC-MS/MS.
SD male rats weighing about 250 g were used for the pharmacokinetics study of Zeta55. After a fast of 12 hours, four rats were oral administrated with 20 mg/kg Zeta55 and one rat was tail vein injected with 5 mg/kg Zeta55. Plasma samples of 0.2 ml were taken at 0, 0.083, 0.25, 0.5, 1, 2, 3, 5, 8, 10, 24, 48, and 72 hours after administration and then measured by LC-MS/MS. AUC0-t, AUC0-∞, t1/2, Tmax, Vz/F, and Cl/F were analyzed by Phoenix winnonlin 8.0.

[10] = IV, tail vein injection 5 mg/kg, n=1, rats
[11] = male, SD, rat, plasma, IV, tail vein injection 5 mg/kg, n=1, rats
[12] = male, SD, rat, plasma, PO, oral gavage 20 mg/kg, n=4, rats

N#Cc1ccc(N2C(=O)C3(CCC3)N(c3ccc(C(=O)NO)c(F)c3)C2=S)cc1C(F)(F)F [Zeta55]
IC50 [1]: > 50 µM | IC50 [2]: 8.36 µM | IC50 ([3]; Homo sapiens, VCaP, 168 h, read-out: IC50 values proliferation VCaP): 2.47 µM | anti-proliferation activity relative to MDV3100 ([3]; VCaP cells): 4.5 fold | DHT-induced endogenous mRNA and protein expression of PSA [4]: significantly suppressed | expression levels of HSP70 [5]: slightly up-regulated | expression levels of HSP90 and HSP60 [5]: did not influence | subcellular localization of AR [6]: distributed in both cytoplasm and nucleus | IC50 [7]: 45.7 µM | IC50 ([8]; AR luciferase activity assay, MMTV-LUC, with 10 nM DHT): 0.63 µM | AR antagonist activity, AR-mediated expression of reporter gene ([8]; in the presence of DHT): potently inhibited | AR agonist activity, expression of reporter gene ([8]; without DHT, 10 μM): did not induce the expression of reporter gene | Cl/F [9, 10]: 114.6149 mL/min/kg | Vz/F [9, 10]: 7.741576 L/kg | t1/2 ([9]; PO, oral gavage 20 mg/kg, n=4, rats, plasma, 20 mg/kg): 174 min and 175.5 min | half-life ([9]; male, SD, rat, plasma, iv, 5 mg/kg, tail vein injection 5 mg/kg, n=1, rats): ~48 min | half-life ([9]; male, SD, rat, plasma, po, 20 mg/kg, oral gavage 20 mg/kg, n=4, rats): ~174 min | AUC(0-inf) [9, 11]: 727 ng·h/mL | Cmax [9, 11]: 1430 ng/mL | Tmax [9, 11]: 4.98 min | AUC(0-t) [9, 11]: 722 ng·h/mL | bioavailability ([9]; male, SD, rat, plasma, PO 20 mg/kg vs IV 5 mg/kg, rats): 17.6% | AUC(0-inf) [9, 12]: 555 ng·h/mL | CL/F [9, 12]: 632 mL/min/kg | Cmax [9, 12]: 183 ng/mL | Tmax [9, 12]: 22.5 min | AUC(0-t) [9, 12]: 508 ng·h/mL | Vd/F ([9]; male, SD, rat, plasma, PO, oral gavage 20 mg/kg, n=4, rats, read-out: Vz/F): 166 L/kg
